Each structure is given as a SMILES string.

The subject of one test is HCV 1b genotype. Briefly: HCV Replicon assay (HCV-neo replicon cells, wild-type). Type of test: cell-based. The settings on record: HCV 1b genotype replicon; range class A-D; read-out: 1b EC50 (in μM or range).
On to `CN(C)C(C)(C(=O)N1CCC[C@H]1C(=O)Nc1ccc(C#Cc2ccc(NC(=O)[C@@H]3CCCN3C(=O)C(C)(c3ccccc3)N(C)C)cc2)cc1)c1ccccc1` (stereo partly drawn) [VN38, (2S,2′S)-N,N′-(1,2-ethynediyldi-4,1-phenylene)bis(1-(2-(dimethylamino)-2-phenylpropanoyl)-2-pyrrolidinecarboxamide)], for which the concentration giving a half-maximal response (EC50) is below 4.57 nM. On the same count and under the same terms, in the case of `CN1Cc2ccccc2C1C(=O)N1CCC[C@H]1C(=O)Nc1ccc(C#Cc2ccc(NC(=O)[C@@H]3CCCN3C(=O)C3c4ccccc4CN3C)cc2)cc1` (stereo partly drawn) [VN39, (2S,2′S)-N,N′-(1,2-ethynediyldi-4,1-phenylene)bis(1-((2-methyl-2,3-dihydro-1H-isoindol-1-yl)carbonyl)-2-pyrrolidinecarboxamide)] it was 100 to 999 nM; in that of `CN1Cc2ccccc2C1C(=O)N1CCC[C@H]1C(=O)Nc1ccc(C#Cc2ccc(NC(=O)[C@@H]3CCCN3C(=O)C3c4ccccc4CN3C)cc2)cc1` (stereo partly drawn) [VN40, (2S,2′S)-N,N′-(1,2-ethynediyldi-4,1-phenylene)bis(1-((2-methyl-2,3-dihydro-1H-isoindol-1-yl)carbonyl)-2-pyrrolidinecarboxamide)], 4.57 to 99 nM; in that of `CN(C)C1(C(=O)N2CCC[C@H]2C(=O)Nc2ccc(C#Cc3ccc(NC(=O)[C@@H]4CCCN4C(=O)C4(N(C)C)CCc5ccccc54)cc3)cc2)CCc2ccccc21` (stereo partly drawn) [VN42, (2S,2′S)-N,N′-(1,2-ethynediyldi-4,1-phenylene)bis(1-((1-(dimethylamino)-2,3-dihydro-1H-inden-1-yl)carbonyl)-2-pyrrolidinecarboxamide)], 4.57 to 99 nM.

Staying with this test, now noted: Hepatitis C virus, HCV 1b genotype replicon; range class A-D; read-out: 1b EC50 (in μM or range).
As to `CC(C)C(=O)N[C@@H](C(=O)N1CCC[C@H]1C(=O)Nc1ccc(C#Cc2ccc(NC(=O)[C@@H]3CCCN3C(=O)[C@H](NC(=O)C(C)C)c3ccccc3)cc2)cc1)c1ccccc1` [VN25, (2S,2′S)-N,N′-(1,2-ethynediyldi-4,1-phenylene)bis(1-((2R)-2-(isobutyrylamino)-2-phenylacetyl)-2-pyrrolidinecarboxamide)], the half-maximal effective concentration (EC50) is below 4.57 nM. Consider `CC(=O)N[C@@H](C(=O)N1CCC[C@H]1C(=O)Nc1ccc(C#Cc2ccc(NC(=O)[C@@H]3CCCN3C(=O)[C@H](NC(C)=O)c3ccccc3)cc2)cc1)c1ccccc1` [VN26, (2S,2′S)-N,N′-(1,2-ethynediyldi-4,1-phenylene)bis(1-((2R)-2-acetamido-2-phenylacetyl)-2-pyrrolidinecarboxamide)], for which the 50% effective concentration (EC50) is below 4.57 nM. The same measure, in the same setting: with `CS(=O)(=O)N[C@@H](C(=O)N1CCC[C@H]1C(=O)Nc1ccc(C#Cc2ccc(NC(=O)[C@@H]3CCCN3C(=O)[C@H](NS(C)(=O)=O)c3ccccc3)cc2)cc1)c1ccccc1` [VN27, (2S,2′S)-N,N′-(1,2-ethynediyldi-4,1-phenylene)bis(1-((2R)-2-((methylsulfonyl)amino)-2-phenylacetyl)-2-pyrrolidinecarboxamide)] the figure was below 4.57 nM.

On to `CN(C)[C@H](Cc1ccccc1)C(=O)N1CCC[C@H]1C(=O)Nc1ccc(C#Cc2ccc(NC(=O)[C@@H]3CCCN3C(=O)[C@@H](Cc3ccccc3)N(C)C)cc2)cc1` [VN28, (2S,2′S)-N,N′-(1,2-ethynediyldi-4,1-phenylene)bis(1-((2R)-2-(dimethylamino)-3-phenylpropanoyl)-2-pyrrolidinecarboxamide)], for which the EC50 was below 4.57 nM. On to `CN(C)[C@@H](Cc1ccccc1)C(=O)N1CCC[C@H]1C(=O)Nc1ccc(C#Cc2ccc(NC(=O)[C@@H]3CCCN3C(=O)[C@H](Cc3ccccc3)N(C)C)cc2)cc1` [VN29, (2S,2′S)-N,N′-(1,2-ethynediyldi-4,1-phenylene)bis(1-((2S)-2-(dimethylamino)-3-phenylpropanoyl)-2-pyrrolidinecarboxamide)], for which the 50% effective concentration (EC50) was 100 to 999 nM. Same read-out and setting: in the case of `CNC(C(=O)N1CCC[C@H]1C(=O)Nc1ccc(C#Cc2ccc(NC(=O)[C@@H]3CCCN3C(=O)C(NC)c3ccccc3)cc2)cc1)c1ccccc1` (stereo partly drawn) [VN30, (2S,2′S)-N,N′-(1,2-ethynediyldi-4,1-phenylene)bis(1-((methylamino)(phenyl)acetyl)-2-pyrrolidinecarboxamide)] it was below 4.57 nM; in that of `CN[C@H](C(=O)N1CCC[C@H]1C(=O)Nc1ccc(C#Cc2ccc(NC(=O)[C@@H]3CCCN3C(=O)[C@@H](NC)c3ccccc3)cc2)cc1)c1ccccc1` [VN31, (2S,2′S)-N,N′-(1,2-ethynediyldi-4,1-phenylene)bis(1-((2S)-2-(methylamino)-2-phenylacetyl)-2-pyrrolidinecarboxamide)], below 4.57 nM; in that of `CN1CCc2ccccc2[C@@H]1C(=O)N1CCC[C@H]1C(=O)Nc1ccc(C#Cc2ccc(NC(=O)[C@@H]3CCCN3C(=O)[C@H]3c4ccccc4CCN3C)cc2)cc1` [VN32, (R,2S,2′S)-N,N′-(4,4′-(ethyne-1,2-diyl)bis(4,1-phenylene))bis(1-((R)-2-methyl-1,2,3,4-tetrahydroisoquinoline-1-carbonyl)pyrrolidine-2-carboxamide)], 100 to 999 nM. In the case of `CN(C)C(C)(C(=O)N1CCC[C@H]1C(=O)Nc1ccc(C#Cc2ccc(NC(=O)[C@@H]3CCCN3C(=O)C(C)(c3ccccc3)N(C)C)cc2)cc1)c1ccccc1` (stereo partly drawn) [VN37, (2S,2′S)-N,N′-(1,2-ethynediyldi-4,1-phenylene)bis(1-(2-(dimethylamino)-2-phenylpropanoyl)-2-pyrrolidinecarboxamide)], the EC50 is below 4.57 nM. Still for that read-out and setting: in the case of `CN(C)C1(C(=O)N2CCC[C@H]2C(=O)Nc2ccc(C#Cc3ccc(NC(=O)[C@@H]4CCCN4C(=O)C4(N(C)C)CCc5ccccc54)cc3)cc2)CCc2ccccc21` (stereo partly drawn) [VN41, (2S,2′S)-N,N′-(1,2-ethynediyldi-4,1-phenylene)bis(1-((1-(dimethylamino)-2,3-dihydro-1H-inden-1-yl)carbonyl)-2-pyrrolidinecarboxamide)] it was below 4.57 nM; in that of `CN(CC(N)=O)C(C(=O)N1CCC[C@H]1C(=O)Nc1ccc(C#Cc2ccc(NC(=O)[C@@H]3CCCN3C(=O)C(c3ccccc3)N(C)CC(N)=O)cc2)cc1)c1ccccc1` (stereo partly drawn) [VN45, (2S,2′S)-N,N′-(1,2-ethynediyldi-4,1-phenylene)bis(1-(((2-amino-2-oxoethyl)(methyl)amino)(phenyl)acetyl)-2-pyrrolidinecarboxamide)], 4.57 to 99 nM. Still for that read-out and setting: with `CC(=O)N(C)C(C(=O)N1CCC[C@H]1C(=O)Nc1ccc(C#Cc2ccc(NC(=O)[C@@H]3CCCN3C(=O)C(c3ccccc3)N(C)C(C)=O)cc2)cc1)c1ccccc1` (stereo partly drawn) [VN46, (2S,2′S)-N,N′-(1,2-ethynediyldi-4,1-phenylene)bis(1-((acetyl(methyl)amino)(phenyl)acetyl)-2-pyrrolidinecarboxamide)] the figure was 100 to 999 nM; with `CCN(C)C(C(=O)N1CCC[C@H]1C(=O)Nc1ccc(C#Cc2ccc(NC(=O)[C@@H]3CCCN3C(=O)C(c3ccccc3)N(C)CC)cc2)cc1)c1ccccc1` (stereo partly drawn) [VN47, (2S,2′S)-N,N′-(1,2-ethynediyldi-4,1-phenylene)bis(1-((ethyl(methyl)amino)(phenyl)acetyl)-2-pyrrolidinecarboxamide)], 4.57 to 99 nM.

The same test, now with this note: Hepatitis C virus, HCV 1b genotype replicon; read-out: 1b EC50 (in μM or range).
For `CN1CCN(C(C(=O)N2CCC[C@H]2C(=O)Nc2ccc(C#Cc3ccc(NC(=O)[C@@H]4CCCN4C(=O)C(c4ccccc4)N4CCN(C)CC4)cc3)cc2)c2ccccc2)CC1` (stereo partly drawn) [VN43, (2S,2′S)-N,N′-(1,2-ethynediyldi-4,1-phenylene)bis(1-((4-methyl-1-piperazinyl)(phenyl)acetyl)-2-pyrrolidinecarboxamide)], the EC50 is 0.015 nM.

Source of the values: patent US8383094B2, “Hepatitis C virus inhibitors” (Bristol-Myers Squibb Company, priority 2008, dated 2013).
